In brackets after ≈: the same amount, converted by molar mass. Like-named read-outs stand apart in the source and are kept apart here.
How the values were obtained:
[1] = test system: non-replicating M. tuberculosis; assay: microbe, parasite or virus in culture; assay type: cell-based, Mycobacterium tuberculosis; conditions: for MIC: Mycobacterium tuberculosis
HepG2 cells = assay type: cell-based
Protocol: Three lead compounds were identified in the first round of high throughput screening (700 compounds), which had minimal inhibitory concentrations (MIC) of 0.4-0.8 μg/mL after a six day exposure to drug (NRd6) in the model of non-replication at pH 5.0, and LD50's of 100 to >100 μg/mL against HepG2 cells (a 2 day exposure).
Furthermore, LD50 values were determined using a human hepatoma cell line (HepG2) using intracellular ATP levels as a measurement that correlated with cellular viability.

[2] = test system: replicating M. tuberculosis; assay: MIC under replication (R) conditions; assay type: cell-based, Mycobacterium tuberculosis; conditions: Mycobacterium tuberculosis
[3] = 72 h, Table 9, 3 Day Exposure to Drug, read-out: MIC NR 0.01 Inoc.
[4] = 72 h, Table 9, 3 Day Exposure to Drug, read-out: MIC NR 0.1 Inoc.
[5] = read-out: MIC NR at 0.01 Inoc. and 3 Day Exposure to Drug, 7 Day Outgrowth, Table 8, ranges from multiple assays
[6] = read-out: MIC NR at 0.01 Inoc. and 3 Day Exposure to Drug, 11 Day Outgrowth, Table 8, ranges from multiple assays
[7] = Table 8, ranges from multiple assays
[8] = 3,4-olefinic isomers, read-out: minimum inhibitory concentration against non-replicating M. tuberculosis
[9] = read-out: minimum inhibitory concentration against replicating M. tuberculosis

Structure (SMILES) | MIC [1, 3] | MIC [1, 4] | HepG2 LD50 (HepG2 cells; human, 2 day) | MIC ([2]; Table 9, read-out: MIC R) | MIC [1, 5] | MIC [1, 6] | HepG2 Toxicity LD50 (HepG2 cells; human, 2 day) | MIC NR at 0.01 Inoc. and 3 Day Exposure to Drug, 7 Day Outgrowth [1, 7] | MIC NR at 0.01 Inoc. and 3 Day Exposure to Drug, 11 Day Outgrowth [1, 7] | other results
CCCNC(=O)C1=C(C)CS[C@@H]2[C@H](NC(=O)CCc3ccc(OC)cc3)C(=O)N12 [Compound 117] | 100 µg/mL (≈ 240 µM) | > 100 µg/mL | >100 µg/mL | > 100 µg/mL | – | – | – | – | – | –
CCCCOC(=O)C1C(C)=CS[C@@H]2[C@H](NC(=O)COc3ccccc3)C(=O)N12 (stereo partly drawn) [Compound 98] | – | – | – | – | 0.39 µg/mL (≈ 0.964 µM) | 0.39 µg/mL (≈ 0.964 µM) | 100 µg/mL | – | – | –
C#CCOC(=O)C1=C(C)CS[C@@H]2[C@H](NC(=O)COc3ccc(Cl)cc3)C(=O)N12 [Compound 88] | – | – | – | – | – | – | – | 0.78 µg/mL (≈ 1.85 µM) | 1.56 µg/mL (≈ 3.71 µM) | HepG2 Toxicity LD50 (HepG2 cells; Table 8): 100 µg/mL
CCOC(=O)C1=C(C)CS[C@@H]2[C@H](NC(=O)COc3ccccc3)C(=O)N12 [Compound 40] | – | – | – | – | – | – | – | 0.39 µg/mL (≈ 1.04 µM) | 0.78 µg/mL (≈ 2.07 µM) | HepG2 Toxicity LD50 (HepG2 cells; Table 8): >100 µg/mL
C#CCOC(=O)C1=C(C)CS[C@@H]2[C@H](NC(=O)COc3ccc(OC)cc3)C(=O)N12 [Compound 85] | – | – | – | – | – | – | – | 0.78 µg/mL (≈ 1.87 µM) | 1.56 µg/mL (≈ 3.75 µM) | HepG2 Toxicity LD50 (HepG2 cells; Table 8): >100 µg/mL
C#CCOC(=O)C1=C(C)CS[C@@H]2[C@H](NC(=O)CCc3ccc(OC)cc3)C(=O)N12 [Compound 94] | – | – | – | – | – | – | – | 0.78 µg/mL (≈ 1.88 µM) | 1.56 µg/mL (≈ 3.76 µM) | HepG2 Toxicity LD50 (HepG2 cells; Table 8): >100 µg/mL
C#CCOC(=O)C1=C(C)CS[C@@H]2[C@H](N(CC#C)CC#C)C(=O)N12 [Compound 106] | – | – | – | – | 12.5 µg/mL (≈ 38.1 µM) | 25 µg/mL (≈ 76.1 µM) | 100 µg/mL | – | – | –
CC1=C(C(=O)O)N2C(=O)[C@@H](NC(=O)Cc3ccc(Cl)cc3)[C@H]2SC1 [Compound 115] | > 100 µg/mL | > 100 µg/mL | >100 µg/mL | 100 µg/mL (≈ 273 µM) | – | – | – | – | – | –
CCCCOC(=O)C1=C(C)CS[C@@H]2[C@H](NC(=O)COc3ccccc3)C(=O)N12 [Compound 118] | – | – | – | – | – | – | – | – | – | MIC [1, 8]: 3.1 µg/mL (≈ 7.66 µM); MIC [2, 9]: 100 µg/mL (≈ 247 µM)
COc1ccc(OCC(=O)N[C@@H]2C(=O)N3C(C(=O)OCc4ccccc4)=C(C)CS[C@H]23)cc1 [Compound 103] | – | – | – | – | 0.78 µg/mL (≈ 1.66 µM) | 1.56 µg/mL (≈ 3.33 µM) | >100 µg/mL | – | – | –
CCCCOC(=O)C1C(C)=CS[C@@H]2[C@H](NC(=O)COc3ccccc3)C(=O)N12 (stereo partly drawn) [Compound 119] | – | – | – | – | – | – | – | – | – | MIC [1, 8]: 3.1 µg/mL (≈ 7.66 µM); MIC [2, 9]: 100 µg/mL (≈ 247 µM)
COc1ccc(CCC(=O)N[C@@H]2C(=O)N3C(C(=O)O)=C(C)CS[C@H]23)cc1 [Compound 108] | > 100 µg/mL | > 100 µg/mL | >100 µg/mL | > 100 µg/mL | – | – | – | – | – | –
CC1=C(C(=O)O)N2C(=O)[C@@H](NC(=O)CCc3ccc(Br)cc3)[C@H]2SC1 [Compound 111] | > 100 µg/mL | > 100 µg/mL | >100 µg/mL | 100 µg/mL (≈ 235 µM) | – | – | – | – | – | –
CC1=C(C(=O)O)N2C(=O)[C@@H](NS(=O)(=O)Cc3ccccc3)[C@H]2SC1 [Compound 112] | > 100 µg/mL | > 100 µg/mL | >100 µg/mL | > 100 µg/mL | – | – | – | – | – | –
C#CCOC(=O)N[C@@H]1C(=O)N2C(C(=O)OCC#C)=C(C)CS[C@H]12 [Compound 105] | – | – | – | – | 6.25 µg/mL (≈ 18.7 µM) | 12.5 µg/mL (≈ 37.4 µM) | >100 µg/mL | – | – | –
CC1=C(C(=O)O)N2C(=O)[C@@H](NC(=O)COc3ccccc3)[C@H]2SC1 [Compound 109] | 100 µg/mL (≈ 287 µM) | > 100 µg/mL | >100 µg/mL | > 100 µg/mL | – | – | – | – | – | –
C=CC1=C(C(=O)O)N2C(=O)[C@@H](NC(=O)/C(=N\O)c3csc(N)n3)[C@H]2SC1 [Compound 107] | – | – | – | – | 50 µg/mL (≈ 126 µM) | 50 µg/mL (≈ 126 µM) | >100 µg/mL | – | – | –
CCCOC(=O)C1=C(C)CS[C@@H]2[C@H](NC(=O)CCc3ccc(OC)cc3)C(=O)N12 [Compound 51] | – | – | – | – | – | – | – | 0.10 µg/mL (≈ 0.239 µM) | 0.10 µg/mL (≈ 0.239 µM) | –
CC1=C(C(=O)OCc2ccccc2)N2C(=O)[C@@H](NC(=O)COc3ccccc3)[C@H]2SC1 [Compound 104] | – | – | – | – | 1.56 µg/mL (≈ 3.56 µM) | 3.13 µg/mL (≈ 7.14 µM) | >100 µg/mL | – | – | –
CCOC(=O)C1=C(C)CS[C@@H]2[C@H](NC(=O)COc3ccc(Cl)cc3)C(=O)N12 [Compound 46] | – | – | – | – | – | – | – | 0.39 µg/mL (≈ 0.949 µM) | 078 µg/mL (≈ 190 µM) | HepG2 Toxicity LD50 (HepG2 cells; Table 8): 50 µg/mL

Reference: US10059722B2, “Cephalosporin derivatives and methods of use” (priority 2012, dated 2018)
